Experimental data as given in patent EP4786454A1, “HETEROARYL DERIVATIVE AND USE THEREOF” (priority 2023, dated 2025).

Assays:
[1] = Plasma protein binding rate, equilibrium dialysis (human plasma); format: in vitro ADME; details: dialysis 4 hours at 37 °C, read-out: Unbound PPB%
Procedure: The protein binding rates of the compounds in the plasma of CD-1 mice, Sprague-Dawley rats, beagle dogs, cynomolgus monkeys, and human were determined using equilibrium dialysis method.
Commercially available plasma, dual-layer dialysis membrane, and equilibrium dialysis device.
The dual-layer dialysis membrane was soaked in ultrapure water for about 1 hour, removed and then divided into two parts. It was then soaked in an ethanol:water (20:80, v:v) solution for 20 minutes or placed at 2 to 8 °C, and it was valid for 1 month. Before starting the assay, the dialysis membrane was rinsed twice with ultrapure water and then soaked in ultrapure water for another 20 minutes for later use.
On the day of assay, the frozen plasma of CD-1 mice, Sprague-Dawley rats, beagle dogs, cynomolgus monkeys, and human was thawed in running cold tap water. After the plasma was completely thawed, the plasma was centrifuged at 3220×g for 5 minutes, and the suspended substances and precipitates in it were removed. The pH of the plasma was determined. The plasma with a pH in the range of 7.4 ± 0.1 was directly used, or the plasma with a pH in the range of 7.4 ± 0.1 after an adjustment with 1% phosphoric acid or 1M sodium hydroxide was used.
Preparation process of plasma samples: 597 µL of blank plasma from each of the above five species was taken, respectively. 3 µL of a compound or warfarin working solution was added, and the mixture was mixed thoroughly to give a plasma sample with a compound concentration of 2 µM and a warfarin concentration of 2 µM (n=1). The concentration of the organic phase DMSO was 0.5%. The sample was thoroughly mixed before proceeding to the next step.
Preparation process of T0 samples: 50 µL of a plasma sample containing the compound and warfarin was transferred to a sample receiving plate (n=3), and 50 µL of blank PBS was immediately added. Then, 500 µL of stop solution was added to the T0 sample of the compound and warfarin, and the mixture was stored at 2 to 8 °C, waiting to be processed later together with other dialysis-processed samples.
Dialysis process of plasma samples: 100 µL of a compound (2 µM) and warfarin (2 µM) plasma sample was added to the donor of each dialysis well (n=3), and 100 µL of blank PBS was added to the corresponding receiver of the dialysis well. The dialysis plate was placed in a 5% CO2 incubator, and incubated at 37 °C with shaking at approximately 100 rpm for 4 hours.
After the dialysis was completed, 50 µL of dialysis-processed PBS sample and dialysis-processed plasma sample (n=3) were transferred to a new 96-well plate (sample receiving plate). The corresponding volume of the corresponding blank plasma or PBS was added to the sample to make the final volume of each sample well 100 µL, with a plasma to PBS volume ratio of 1:1. All the samples were analyzed by LC-MS/MS after protein precipitation.
The formulas for calculating the unbound fraction (%Unbound), bound fraction (%Bound) and recovery fraction (%Recovery) of a compound are as follows: %Unbound = 100 ×F / T %Bound = 100 - %Unbound %Recovery = 100 ×(F + T)/ T0 wherein F is the concentration of the compound at the receiver of dialysis; T is the concentration of the compound at the supply end of dialysis; and T0 is the concentration of the compound in the plasma at time zero.

hKCNQ2/3 = molecular target: T1, hKCNQ2/3 (Homo sapiens, UniProt O43525+O43526); experiment: hKCNQ2/3 thallium flux assay (FLIPR); format: cell-based; details: agonistic effect, CHO cell line stably expressing hKCNQ2/3
T1 construct: expressed in transfected cells; host or cells: CHO
T1 sequence (O43525 whole entry): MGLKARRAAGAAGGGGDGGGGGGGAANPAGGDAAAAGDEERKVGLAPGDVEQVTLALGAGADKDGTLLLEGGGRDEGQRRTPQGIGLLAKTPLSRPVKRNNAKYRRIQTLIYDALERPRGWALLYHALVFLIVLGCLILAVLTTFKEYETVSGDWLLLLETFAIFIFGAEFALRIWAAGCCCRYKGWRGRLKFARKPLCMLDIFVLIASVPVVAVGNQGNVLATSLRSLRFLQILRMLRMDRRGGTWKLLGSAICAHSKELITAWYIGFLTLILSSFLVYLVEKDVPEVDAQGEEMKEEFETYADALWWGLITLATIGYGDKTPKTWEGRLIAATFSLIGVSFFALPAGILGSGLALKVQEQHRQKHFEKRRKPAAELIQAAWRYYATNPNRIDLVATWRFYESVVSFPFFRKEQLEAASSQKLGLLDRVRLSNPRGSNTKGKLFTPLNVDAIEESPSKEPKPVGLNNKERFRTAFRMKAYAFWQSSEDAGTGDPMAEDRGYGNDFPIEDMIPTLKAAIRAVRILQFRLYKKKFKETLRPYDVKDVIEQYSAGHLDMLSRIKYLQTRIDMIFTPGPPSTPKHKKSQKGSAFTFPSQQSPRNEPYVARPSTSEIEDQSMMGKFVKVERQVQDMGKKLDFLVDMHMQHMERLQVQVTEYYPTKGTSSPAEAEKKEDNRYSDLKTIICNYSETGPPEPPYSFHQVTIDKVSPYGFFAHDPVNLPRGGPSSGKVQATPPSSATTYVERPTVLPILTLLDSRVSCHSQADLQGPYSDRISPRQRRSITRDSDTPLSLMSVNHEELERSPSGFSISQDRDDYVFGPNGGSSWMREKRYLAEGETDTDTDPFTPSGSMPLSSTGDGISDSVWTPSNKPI
T1 sequence (O43526 whole entry): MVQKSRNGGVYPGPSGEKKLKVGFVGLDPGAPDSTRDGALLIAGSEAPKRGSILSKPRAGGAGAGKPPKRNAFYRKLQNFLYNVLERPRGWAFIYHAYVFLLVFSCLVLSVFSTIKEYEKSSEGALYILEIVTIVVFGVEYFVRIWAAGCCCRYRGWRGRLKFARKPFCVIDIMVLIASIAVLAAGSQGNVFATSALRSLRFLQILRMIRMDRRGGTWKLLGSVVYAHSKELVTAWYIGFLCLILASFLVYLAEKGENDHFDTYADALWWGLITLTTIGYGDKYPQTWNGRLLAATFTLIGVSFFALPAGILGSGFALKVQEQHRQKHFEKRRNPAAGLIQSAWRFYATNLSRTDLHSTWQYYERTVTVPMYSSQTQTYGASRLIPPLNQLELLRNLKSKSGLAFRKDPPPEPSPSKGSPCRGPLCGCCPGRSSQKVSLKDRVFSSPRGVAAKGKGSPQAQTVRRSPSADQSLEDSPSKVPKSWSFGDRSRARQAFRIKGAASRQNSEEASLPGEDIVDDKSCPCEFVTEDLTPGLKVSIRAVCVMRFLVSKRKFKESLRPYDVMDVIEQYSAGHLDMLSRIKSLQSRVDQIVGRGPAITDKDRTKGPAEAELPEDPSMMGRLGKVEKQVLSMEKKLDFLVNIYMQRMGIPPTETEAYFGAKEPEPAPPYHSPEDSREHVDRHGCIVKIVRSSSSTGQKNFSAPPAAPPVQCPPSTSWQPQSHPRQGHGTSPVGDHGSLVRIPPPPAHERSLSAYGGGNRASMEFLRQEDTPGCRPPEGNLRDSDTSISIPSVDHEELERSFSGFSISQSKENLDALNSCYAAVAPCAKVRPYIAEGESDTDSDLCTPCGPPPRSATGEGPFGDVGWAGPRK
Excerpt: The present disclosure also provides the following assay methods: • Assay method 1: hKCNQ2/3 thallium flux assay • Purpose of the assay: To determine the in vitro concentration-response relationship of the compounds in a CHO cell line stably expressing hKCNQ2/3 using FLIPR thallium flux assay.
CHO cells stably transfected with hKCNQ2/3.
The cell line was passaged three times a week at a split ratio of 1:2 to 1:3. When the cells grew to a confluence degree of greater than 80% in a T-75 cell flask, they were digested with 0.25% trypsin-EDTA solution for about 1 minute, and then the cells were transferred from the cell flask for passage. According to the split ratio, the cells were transferred to another T-75 cell flask containing complete cell growth culture medium. Note: In order to maintain the logarithmic growth of cells, the cell growth should be maintained in a subconfluent monolayer state. The cells were passaged every 2 to 3 days according to the cell doubling time.
• (1) Day 1, cell preparation: The cells were digested according to the above method, and the cell density and viability were determined using Cell Countess. The volume of the single-cell suspension was adjusted with complete cell growth culture medium. Then, the hKCNQ2/3_CHO cells were seeded at a density of approximately 20,000 cells/well (30 µL/well) into a PDL-precoated 384-well plate. Then, the plate was incubated at 37 °C with 5% CO2 humidified air in an incubator overnight. • (2) Day 2, compound preparation: A test compound was diluted to a storage concentration with dimethyl sulfoxide (DMSO), and stored in a freezer at -20 °C. A compound addition program was set up on the ECHO liquid workstation, and the compound was added to the plate using the ECHO liquid workstation. A positive control was prepared using Retigabine (RTG) with a maximum concentration of 100 µM, which was subjected to a 3-fold dilution, resulting in a total of 9 doses constituting the plate map required for plating. Prepare the plate using a stimulation buffer containing 5 mM K^+ and 1 mM Tl^+. Note: 1) K2SO4 and Tl2SO4 were prepared in a 1× chloride-free buffer. When different voltage-gated potassium channels were involved, the concentrations of Tl^+ and K^+ were needed to be adjusted. The concentration of Tl^+ was approximately 0.5 mM to 5 mM, and the concentration of K^+ was approximately 5 mM to 30 mM. 2) Each 1 mM solution of K2SO4 and Tl2SO4 contained 2 mM K^+ and Tl^+. The final concentration should be calculated based on the ion concentrations. 3) TlCl was easily precipitated and a chloride-free buffer was required. • (3) Day 2, assay testing: When the cells reached the confluence degree, the cell analysis plate was taken out from the incubator. The assay buffer was prepared and the Tl^+ dye (Molecular Devices # R8222) was diluted. The culture medium was discarded using the liquid workstation Bravo and 25 µL of Tl^+ dye was added to each well. The plate was incubated for 1 hour, and then the cell analysis plate, composite plate, and FLIPR tip were placed in FLIPR^TETRA (Molecular Devices, USA) for FLIPR assay. The tip was set up, and then the baseline was read for 60 seconds. Then, 12.5 µL from the composite plate (3×) was added to the cell analysis plate, and the data were recorded for at least 5 minutes at the same time. • (4) Data processing: The maximum signal was generated with FLIPR software. Excel (2013) and Prism 6.01 were used for data analysis. The data quality control was performed with S/B > 2.00 and Z-factor > 0.50. IC50 or EC50 was defined as the midline between the lowest and the highest plateaus, and it was calculated using a four-parameter logistic model with Prism 6.01.
Purpose of the assay: To determine the in vitro concentration-response relationship of the compounds in a CHO cell line stably expressing hKCNQ2/3 using FLIPR thallium flux assay. […]

SMILES: CC(C)(C)CC(=O)Nc1nc2c(F)cc(C#N)cn2c1-c1ccc(OC(F)(F)F)cc1 [Compound 1]
- fraction unbound at 4 h, 2 µM [1]: 0.051

SMILES: CC(C)(C)CC(=O)Nc1nc2c(F)cc(C#N)cn2c1C1=CCCC1 [Compound 3]
- fraction unbound at 4 h, 2 µM [1]: 0.109
- EC50 (hKCNQ2/3): 480 nM

SMILES: CC(C)(C)CC(=O)Nc1nc2c(F)cc(C#N)cn2c1C12CC(C1)C2 [Compound 5]
- fraction unbound at 4 h, 2 µM [1]: 0.231
- EC50 (hKCNQ2/3): 200 nM

SMILES: CC(C)(C)CC(=O)Nc1nc2c(C(F)(F)F)cc(C#N)cn2c1C12CC(C1)C2 [Compound 6]
- EC50 (hKCNQ2/3): 710 nM
